According to publication PMC6272970 (Molecules, 2016):
≈ marks a conversion by molar mass, not a printed value.

How the values were obtained:
[1] = parameters: method as in PMID 25030991; details: rat plasma; 2.5 mg/kg sublingual vein administration; cited from earlier work
[2] = Solubility trials of rutin in water, ethanol, methanol and NADES, quantified by HPLC-DAD; type: physicochemical; details: 22 °C
Description: Samples were stirred on a magnetic stirrer (Stuart, Bibby Scientific Ltd., Stone, Staffordshire, UK) for one hour at room temperature and centrifuged for 21 min at 13,000 rpm with Eppendorf 5415 R centrifuge The time of one-hour stirring was chosen because it was sufficient for all the prepared mixtures to reach maximum concentration of rutin. […] Calibration curve was obtained injecting standard solution at different concentrations namely (50, 25, 10, 5 and 1 μg/mL) Calibration curve was as follows y = 17.832 x + 9.7822 (R^2 was 0.9998). Limit of Quantification was 1 μg/mL. For HPLC-DAD a series 1260 HPLC instrument (Agilent, Cernusco Sul Naviglio (MI), Italy) equipped with a quaternary pump, a diode-array detector, an auto sampler and a column oven compartment was used. Analyses were performed on Eclipse XDB C8 column (5 μm, 4.6 mm × 150 mm, Agilent). The mobile phase was (A) water-formic acid (99.9:0.1, v/v) and (B) acetonitrile. A gradient program was used as follows: [0 → 10[…] (60:40) 10 → 11[…] (0:100) 11 → 12[…] (0:100) 12 → 13[…] (90:10) 13 → 14[…] (90:10)]. The mobile phase flow rate was 1.2 mL/min and the injection volume was 10 μL. The chromatogram was recorded at 350 nm and spectral data for all peaks were obtained in the range of 190-400 nm. The retention time of rutin in the analysis conditions was 3.8 min.

[3] = parameters: method as in PMID 11151743; details: healthy volunteers, various dose levels; quercetin glucuronides and/or sulfates measured; cited from earlier work

C[C@@H]1O[C@@H](OC[C@H]2O[C@@H](Oc3c(-c4ccc(O)c(O)c4)oc4cc(O)cc(O)c4c3=O)[C@H](O)[C@@H](O)[C@@H]2O)[C@H](O)[C@H](O)[C@H]1O [rutin]
maximum concentration [1]: 1659 ng/mL
time of maximum concentration [1]: 5 min
solubility at 1 h ([2]; Citric Acid–Fructose 1:1 (NADES mixture 7), organic solvent or mixture, thermodynamic from solid, solvent mixture 7 Citric Acid–Fructose 1:1): 205 ± 5.1 µg/mL (≈ 336 µM)
solubility at 1 h ([2]; Glucose–Citric Acid–Water 1:1:1 (NADES mixture 9), solvent mixture 9 Glucose–Citric Acid–Water 1:1:1): 175 ± 3.7 µg/mL (≈ 287 µM)
solubility at 1 h ([2]; Glucose–Fructose–Sorbitol 1:1:1 (NADES mixture 6), organic solvent or mixture, thermodynamic from solid, solvent mixture 6 Glucose–Fructose–Sorbitol 1:1:1): 90.8 ± 1.9 µg/mL (≈ 149 µM)
solubility at 1 h ([2]; Glucose–Fructose–Water 1:1:1 (NADES mixture 5), organic solvent or mixture, thermodynamic from solid, solvent mixture 5 Glucose–Fructose–Water 1:1:1): 81.9 ± 2.5 µg/mL (≈ 134 µM)
solubility at 1 h ([2]; Proline–Glutamic Acid 1:1 (NADES mixture 10), solvent mixture 10 Proline–Glutamic Acid 1:1): 2260 ± 63.4 µg/mL (≈ 3700 µM)
solubility at 1 h ([2]; Proline–Glutamic Acid 2:1 (NADES mixture 11), organic solvent or mixture, thermodynamic from solid, solvent mixture 11 Proline–Glutamic Acid 2:1): 2940 ± 118 µg/mL (≈ 4810 µM)
solubility at 1 h ([2]; Tartaric Acid–Fructose 1:1 (NADES mixture 8), organic solvent or mixture, thermodynamic from solid, solvent mixture 8 Tartaric Acid–Fructose 1:1): 504 ± 16.4 µg/mL (≈ 826 µM)
solubility at 1 h ([2]; ethanol, solvent Ethanol, mean ± SD of 3): 2370 ± 93.2 µg/mL (≈ 3880 µM)
solubility at 1 h ([2]; methanol, solvent Methanol, mean ± SD of 3): 2050 ± 89.7 µg/mL (≈ 3360 µM)
solubility at 1 h ([2]; natural deep eutectic solvent (NADES), organic solvent or mixture, thermodynamic from solid, solvent mixture 1 Urea–Glucose–Citric Acid 1:1:1): 379 ± 8.5 µg/mL (≈ 620 µM)
solubility at 1 h ([2]; natural deep eutectic solvent (NADES), organic solvent or mixture, thermodynamic from solid, solvent mixture 2 Urea–Glucose–Fructose 1:1:1): 961 ± 30.6 µg/mL (≈ 1570 µM)
solubility at 1 h ([2]; natural deep eutectic solvent (NADES), organic solvent or mixture, thermodynamic from solid, solvent mixture 3 Urea–Tartaric Acid 1:1): 680 ± 19 µg/mL (≈ 1110 µM)
solubility at 1 h ([2]; natural deep eutectic solvent (NADES), organic solvent or mixture, thermodynamic from solid, solvent mixture 4 Urea–Choline chloride 1:1): 1880 ± 48.1 µg/mL (≈ 3080 µM)
solubility at 1 h ([2]; natural deep eutectic solvent (NADES), organic solvent or mixture, thermodynamic from solid, solvent mixture 12 Proline–Oxalic Acid 1:1): 749 ± 22.5 µg/mL (≈ 1230 µM)
solubility at 1 h ([2]; natural deep eutectic solvent (NADES), organic solvent or mixture, thermodynamic from solid, solvent mixture 14 Ornitine–Tartaric Acid 1:1): 210 ± 5.7 µg/mL (≈ 343 µM)
solubility at 1 h ([2]; natural deep eutectic solvent (NADES), organic solvent or mixture, thermodynamic from solid, solvent mixture 15 Arginine–Tartaric Acid 1:1): 363 ± 11.2 µg/mL (≈ 594 µM)
solubility at 1 h ([2]; natural deep eutectic solvent (NADES), organic solvent or mixture, thermodynamic from solid, solvent mixture 16 Citrulline–Tartaric Acid 1.1): 370 ± 13.1 µg/mL (≈ 607 µM)
solubility at 1 h ([2]; natural deep eutectic solvent (NADES), organic solvent or mixture, thermodynamic from solid, solvent mixture 17 Arginine–Oxalic Acid 1:1): 414 ± 13.6 µg/mL (≈ 679 µM)
solubility at 1 h ([2]; natural deep eutectic solvent (NADES), organic solvent or mixture, thermodynamic from solid, solvent mixture 18 Proline–Malic Acid 1:1): 900 ± 31.1 µg/mL (≈ 1470 µM)
solubility at 1 h ([2]; natural deep eutectic solvent (NADES), organic solvent or mixture, thermodynamic from solid, solvent mixture 19 Arginin–Malic Acid 1:1): 457 ± 17.8 µg/mL (≈ 749 µM)
solubility at 1 h ([2]; natural deep eutectic solvent (NADES), organic solvent or mixture, thermodynamic from solid, solvent mixture 20 Ornitine–Malic Acid 1:1): 408 ± 14.8 µg/mL (≈ 668 µM)
solubility at 1 h ([2]; natural deep eutectic solvent (NADES), organic solvent or mixture, thermodynamic from solid, solvent mixture 21 Citrulline–Malic Acid 1:1): 454 ± 18.5 µg/mL (≈ 744 µM)
solubility at 1 h ([2]; natural deep eutectic solvent (NADES), organic solvent or mixture, thermodynamic from solid, solvent mixture 22 Proline–Citric Acid 1:1): 672 ± 26.2 µg/mL (≈ 1100 µM)
solubility at 1 h ([2]; natural deep eutectic solvent (NADES), organic solvent or mixture, thermodynamic from solid, solvent mixture 23 Arginine–Citric Acid 1:1): 414 ± 13.3 µg/mL (≈ 679 µM)
solubility at 1 h ([2]; natural deep eutectic solvent (NADES), organic solvent or mixture, thermodynamic from solid, solvent mixture 24 Ornitine–Citric Acid1:1): 425 ± 17.2 µg/mL (≈ 696 µM)
solubility at 1 h ([2]; natural deep eutectic solvent (NADES), organic solvent or mixture, thermodynamic from solid, solvent mixture 25 Citrulline–Citric Acid 1:1): 460 ± 14.4 µg/mL (≈ 753 µM)
solubility at 1 h ([2]; natural deep eutectic solvent (NADES), organic solvent or mixture, thermodynamic from solid, solvent mixture 26 Proline–Glucose1:1): 879 ± 31.3 µg/mL (≈ 1440 µM)
solubility at 1 h ([2]; natural deep eutectic solvent (NADES), organic solvent or mixture, thermodynamic from solid, solvent mixture 27 Proline–Fructose 1:1): 1560 ± 43.8 µg/mL (≈ 2560 µM)
solubility at 1 h ([2]; natural deep eutectic solvent (NADES), organic solvent or mixture, thermodynamic from solid, solvent mixture 28 Proline–Choline Chloride 1:2): 2640 ± 101 µg/mL (≈ 4330 µM)
solubility at 1 h ([2]; natural deep eutectic solvent (NADES), organic solvent or mixture, thermodynamic from solid, solvent mixture 29 Proline–Choline Chloride 1:3): 2800 ± 103 µg/mL (≈ 4580 µM)
solubility at 1 h ([2]; natural deep eutectic solvent (NADES), organic solvent or mixture, thermodynamic from solid, solvent mixture 30 Choline Chloride–Malic Acid 1:1): 702 ± 22.3 µg/mL (≈ 1150 µM)
solubility at 1 h ([2]; water, solvent Water, mean ± SD of 3): 120 ± 4.9 µg/mL (≈ 197 µM)
rutin in plasma after oral dosing [3]: no rutin was detectable
